Numbers after ± are expanded uncertainties.
Conditions: 101.33 kPa, Liquid

viscosity (293.15 K) | viscosity (298.15 K) | viscosity (303.15 K) | viscosity (308.15 K) | viscosity (313.15 K) | viscosity (318.15 K) | viscosity (323.15 K) | viscosity (328.15 K) | viscosity (333.15 K) | viscosity (338.15 K) | viscosity (343.15 K) | viscosity (348.15 K) | viscosity (353.15 K) | viscosity (358.15 K) | viscosity (363.15 K) | SMILES
2619 mPa·s | 1796 mPa·s | 1260 mPa·s | 904.36 mPa·s | 596.88 mPa·s | 445.06 ± 200 mPa·s | 335.81 ± 130 mPa·s | 256.28 ± 85 mPa·s | 199.67 ± 56 mPa·s | 153.8 ± 35 mPa·s | 122.53 ± 22 mPa·s | 98.65 ± 15 mPa·s | 80.46 ± 11 mPa·s | 66.2 ± 8.7 mPa·s | 53.33 ± 8 mPa·s | CCCC(=O)[O-].[NH3+]CCO [2-hydroxy ethylammonium butanoate]
3073 mPa·s | 1974 mPa·s | 1306 mPa·s | 896.3 mPa·s | 624.5 mPa·s | 363.72 ± 150 mPa·s | 271.13 ± 93 mPa·s | 203.65 ± 58 mPa·s | 159.15 ± 37 mPa·s | 123.69 ± 23 mPa·s | 98.5 ± 14 mPa·s | 79.76 ± 8.3 mPa·s | 65.27 ± 5.6 mPa·s | 52.72 ± 4.6 mPa·s | 43.69 ± 5 mPa·s | CC(=O)[O-].[NH3+]CCO [2-hydroxyethylammonium acetate]
129 ± 50 mPa·s | 98.49 ± 27 mPa·s | 71.9 ± 11 mPa·s | 56.34 ± 2.8 mPa·s | 44.88 ± 4.3 mPa·s | 36.53 ± 3.5 mPa·s | 30.1 ± 2.9 mPa·s | 24.92 ± 2.4 mPa·s | 21 ± 2.1 mPa·s | 18.98 ± 1.9 mPa·s | 16.3 ± 1.6 mPa·s | 13.96 ± 1.4 mPa·s | 12.1 ± 1.3 mPa·s | 10.57 ± 1.2 mPa·s | 9.3 ± 1.1 mPa·s | NCCO.O=CO [2-hydroxyethylammonium formate]
